Key:
[1] = tested on: J774A.1 cells; test: Liposome binding to macrophages (3H-labeled liposomes, 4° C.); assay type: cell-based, murine
Experimental: FIG. 10. Effect of phosphatidylserine (PS) or oxLig-1 content on the binding of liposomes to macrophages. A monolayer of J774.A1 cells was incubated for 2 hours at 4° C. with Celgrosser-P medium containing ^3H-labeled liposomes (50 nmol lipid/well). Open circle represents PS-liposomes; closed circle represents PS-Chol-liposomes; open square represents oxLig-1-liposomes; and closed square represents oxLig-1-Chol-liposomes. Data are indicated as the mean± SD of triplicate samples.
FIG. 11. β2-GPI and anti-β2-GPI monoclonal antibody-dependent binding of ligand-containing liposomes to macrophage. A monolayer of J774.A1 cells was incubated for 2 hours at 4° C. with Celgrosser-P medium containing ^3H-labeled liposomes (50 nmol lipid/well) and WB-CAL-1, in the presence or absence of β2-GPI (200 μg/ml). • A: Binding of PS-liposomes (PS: 50 mol %,) to J774.A1. cells in the presence (closed square) or absence (open square) of β2-GPI (200 μg/ml) • B: Binding of oxLig-1-liposomes (oxLig-1: 40 mol %) to J774.A1 cells in the presence (black bar) or absence (white bar) of β2-GPI (200 μg/ml). • C: A monolayer of J774.A1 cells was incubated for 2 hours at 4° C. with Celgrosser-P medium containing ^3H-labeled synthesized oxLig-1-liposomes (50 nmol lipid/well) and WB-CAL-1, in the presence or absence of β2-GPI (200 μg/ml). Binding of synthesized oxLig-1-liposomes in the absence of β2-GPI and WB-CAL-1 (open circle), binding of synthesized oxLig-1-liposomes in the presence of β2-GPI (open square), binding of synthesized oxLig-1-liposomes in the presence of WB-CAL-1 (closed square), and binding of synthesized oxLig-1-liposomes in the presence of both β2-GPI and WB-CAL-1 (closed circle). Data are indicated as the mean ± SD of triplicate samples.
A monolayer of J774.A1 cells was incubated for 2 hours at 4° C. with Celgrosser-P medium containing [^3H]-labeled liposomes (containing a predetermined ligand, 50 nmol lipid/well). DPPS-containing liposomes (open squares), oxLig-1-containing liposomes (closed squares), oxLig-2-containing liposomes (closed circles), and 13-COOH-7KC-containing liposomes (closed triangles). Data are indicated as mean± SD of triplicate samples.
A monolayer of J774.A1 cells was incubated for 2 hours at 4° C. with Celgrosser-P medium containing [^3H]-labeled liposomes (containing a predetermined ligand (30 mmol %), 50 nmol lipid/well) and in the presence (black bars) or absence (white bars) of β2-GPI (200 μg/mL) and WB-CAL-1 ([…]).
A monolayer culture of murine macrophage-like cells (J774A.1) obtained from Riken Cell Bank (Tsukuba) was maintained in RPMI 1640 medium supplemented with 10% fetal carf serum (FCS). For binding experiments, the cells (8×10^5 cells/mL, RPMI1640) were dispensed in an amount of 1 mL/well into a 12-well culture plate (Sumitomo Bakelite Co., Ltd.) and were incubated for 24 hours at 37° C., then the culture broth was replaced with Celgrosser-P medium (Sumitomo Pharmaceutical Co.). After one hour of preincubation at 37° C., 50 μL of liposomes (50 nmol lipid/well) with or without β2-GPI (200 μg/mL) and WB-CAL-1 (100 μg/mL) were added to each culture, and the cells were incubated at 4° C. and/or 37° C. The wells were next washed with chilled PBS, and the cells were lysed by adding 1 mL of 0.1N NaOH. An aliquot was taken for determination of cellular proteins and of radioactivity associated with the cells. Protein concentration was determined in a manner as described above.

[2] = tested on: anti-β2-GPI antibodies; test: ELISA of the anti-β2-GPI antibodies by use of a ligand-coated plate (results in words); assay type: binding; details: result in words
Experimental: Binding to extracted lipids: A microtiter plate (Immulon 1B, Dynex Technologies Inc.) was coated with lipids extracted from LDLs (50 μg/mL, 50 μL/well) by ethanol evaporation. The wells were blocked with PBS containing 1% BSA for one hour and the wells were incubated with 30 μg/mL of β2-GPI for one hour. Then, β2-GPI binding was detected using Cof-22 and HRP-labeled anti-mouse IgG antibodies. Alternatively, an anti-β2-GPI autoantibody (Cof-22, WB-CAL-1, or EY2C9) was diluted with a 0.3% BSA-containing PBS, and the diluted antibody was added to the coated plate (1.0 μg/mL, 100 μL/well) and incubated with β2-GPI (15 μg/mL) for one hour. The binding of the antibody was detected by an HRP-labeled anti-mouse IgG /or an anti-human IgM. The color was developed with H2O2 and o-phenylenediamine, and OD was measured at 490 nm. Between these steps, extensive washing were done using PBS containing 0.05% Tween 20.
(§1) Synthesized oxLig-1 (50 μg/mL, 50 μL/well) was adsorbed by evaporation on a polystyrene plate (Immulon 1B; Dynex Technologies Inc.), and the plate was then blocked with 1% BSA. Serum samples (diluted 1:100 with PBS containing 0.3% BSA) were incubated in the wells with β2-GPI (15 μg/mL) or other proteins for one hour at room temperature. Antibody binding was detected with HRP-labeled anti-human IgG. Further steps were performed through a method as described in “anti-β2-GPI ELISA.”

[3] = tested on: APS-1; test: ELISA on solid-phase lipid-coated plate: binding of antibodies of APS patient serum APS-1; parameters: species or system human; details: Experiment 1; Absorbance, mean ± SD, n = 3; solid-phase lipid, β2-GPI 15 μg/mL; serum with β2-GPI removed
Experimental: To eliminate endogenous β2-GPI in some experiments, serum samples were passed through a heparin-Sepharose column. The effluent was dialyzed against PBS and was used for ELISAs.
as §1
CL (50 μg/mL, 50 μL/well) was adsorbed on a polystyrene plate (Immulon 1B), and further steps were performed through a method as described in “ELISA for antibodies against a protein-oxLig-1 complex.”

Structure (SMILES): CC(C)CCC[C@@H](C)[C@H]1CC[C@H]2[C@@H]3C(=O)C=C4C[C@@H](OC(=O)CCCCCCCC(=O)O)CC[C@]4(C)[C@H]3CC[C@]12C [oxLig-1, 9-oxo-9-(7-ketocholest-5-en-3β-yloxy)nonanoic acid]
- direct binding of liposomes to macrophages ([1]; J774A.1 cells, 2 hours at 4° C., 50 nmol lipid/well, without β2-GPI and antibody, result in words): relatively low or negligible small
- uptake of ligand-containing liposomes to J774A.1 cells in the presence of both β2-GPI and WB-CAL-1 ([1]; liposomes containing the ligand, compared with cholesteryl linoleate-liposomes (control), FIG. 20, result in words): significantly enhanced
- ligand concentration in liposomes at which binding to macrophages reached almost plateau ([1]; synthesized oxLig-1-liposomes, J774A.1 cells): 10 mol %
- binding of the anti-β2-GPI autoantibodies (WB-CAL-1 and EY2C9) to solid-phase ligand ([2]; ligand-coated plate): significant binding
- cross-reaction of autoantibodies derived from APS with β2-GPI complexed with lipid [2]: cross-reacted
- Binding of β2-GPI-dependent aCL, APS-1 [3]: 1.130 ± 0.177
